Key:
[1] = tested on: NP cells; experiment: pCREB immunostaining of IVD sections at time points after PTH treatment; assay type: in vivo, mouse
Experimental: For immunocytochemical staining, we incubated GFP labeled NP cells co-stained with primary antibody to rabbit PTH1R PRB-635P (Covance, 1:100) for 1 h and subsequently stained with secondary antibodies conjugated with fluorescence at room temperature. At the time of euthanasia, we dissected and fixed the lumbar vertebral spine in 10% buffered formalin for 48 h, decalcified them in 10% EDTA (pH 7.4) for 14-21 days and embedded them in paraffin or optimal cutting temperature (OCT) compound (Sakura Finetek). Fourmicrometer-thick coronal-oriented sections of the L1-L6 spine were processed for safranin O and fast green staining. […] For immunofluorescent assay, the slides were incubated with secondary antibodies conjugated with fluorescence at room temperature for 1 h while avoiding light. […]
Quantitative histomorphometric analysis was conducted in a blinded fashion with Image-Pro Plus Software version 6.0 (Media Cybernetics Inc). […] Five randomly selected sections per mice in each group at L3-L4 level were chosen for quantitative histomorphometric analysis. […] The percentage area of CCN2 and ACAN positive staining was calculated by measuring the positive area to the whole area of the L3-L4 in each group.

[2] = biological target: T1, PTH1R (Mus musculus, UniProt P41593); experiment: Primary cilia visualization and co-localization in NP cells; assay type: cell-based
T1 construct: endogenous in cells; host or cells: primary mouse nucleus pulposus (NP) cells isolated from intervertebral discs of 15-day old male mice
T1 sequence (P41593 27-591): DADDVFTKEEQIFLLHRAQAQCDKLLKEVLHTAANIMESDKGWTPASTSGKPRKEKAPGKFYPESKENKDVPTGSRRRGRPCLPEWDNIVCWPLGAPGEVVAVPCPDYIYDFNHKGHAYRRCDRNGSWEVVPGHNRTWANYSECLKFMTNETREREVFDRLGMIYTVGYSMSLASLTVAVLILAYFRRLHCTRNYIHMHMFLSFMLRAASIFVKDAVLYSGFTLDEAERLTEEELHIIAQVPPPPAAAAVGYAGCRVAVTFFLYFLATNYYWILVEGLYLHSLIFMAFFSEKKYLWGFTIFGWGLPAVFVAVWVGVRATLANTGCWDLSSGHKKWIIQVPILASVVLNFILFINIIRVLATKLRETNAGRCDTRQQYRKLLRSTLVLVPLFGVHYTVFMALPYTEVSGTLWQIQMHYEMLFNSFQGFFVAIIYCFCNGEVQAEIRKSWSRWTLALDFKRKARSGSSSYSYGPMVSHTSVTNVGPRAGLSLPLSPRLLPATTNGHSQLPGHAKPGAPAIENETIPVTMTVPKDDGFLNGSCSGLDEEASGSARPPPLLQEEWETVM
Experimental: The localization of PTH signaling components within NP cells was investigated through immunocytochemistry after 48 hours of serum starvation (DMEM, 0.5% FBS, 1% P/S). Cells were treated with PTH (recombinant human PTH, […], Bachem Calif., Inc. King of Prussia, Pa., USA.) or shear stress (1 dyn/cm^2) with times of exposure for 30 minutes, fixed and stained for acetylated α-tubulin of primary cilia, PTH1R (Abcam, 1:100) and pCREP (Abcam, 1:500). Coverslips were mounted with Fluoroshield-DAPI. All cells were imaged using a Zeiss LSM710 META Confocal Laser Scanning microscope fitted with a 63× objective. Region of interest were selected manually using ImageJ software. The intensity profiles along the cilia have been performed by tracing a line across the length of the primary cilia and measuring intensity along this line using ImageJ software. Average intensities in the ciliary region, were measured on at least 30 ciliated cells per condition.

[3] = tested on: NP cells; experiment: Western blot of pCREB in cultured NP cells; assay type: cell-based, mouse
Experimental: Green fluorescent protein (GFP) labeled NP cells of notochordal origin were isolated from 15-day old Noto^Cre/+::ROSA26-lacZ^flox/flox male mice as previously described. The NP cells from 15-day old PTH1R^+/+ and PTH1R^−/−, IFT88^+/+ and IFT88^−/− male mice. Briefly, the cells were isolated from the NP region of IVDs in the spinal column from mid thoracic to lower lumbar region and digested initially with TrypLE Express (Gibco) for 30 minutes on shaker, followed by 0.25 mg/ml Collagense-P (Roche) for another […] at 37° C. The digested cells were washed twice with PBS, and cultured in α-MEM (Gibco) supplemented with 10% fetal calf serum (Atlanta Biologicals), and 1% penicillin—streptomycin (Mediatech) to 80-90% confluence at 37° C., 5% CO2 and 5% O2.
Western blot analyses were conducted on the protein lysates from in vitro cultured NP cells or NP tissues from mice at specific time points after PTH (1-34) treatment and human at different ages with lumbar disc degeneration. The protein extract was centrifuged, the concentration of supernatant evaluated by DC protein assay (Bio-Rad Laboratories), and then separated by SDS-PAGE and blotted on a polyvinylidene fluoride membrane (Bio-Rad Laboratories). Following incubation in specific antibodies, we detected proteins using an enhanced chemiluminescence kit (Amersham Biosciences). […]

[4] = knockdown of pallidin with siRNA

Which results are given for CC[C@H](C)[C@H](NC(=O)[C@H](CCC(=O)O)NC(=O)[C@H](CO)NC(=O)[C@@H](NC(=O)[C@@H](N)CO)C(C)C)C(=O)N[C@@H](CCC(N)=O)C(=O)N[C@@H](CC(C)C)C(=O)N[C@@H](CCSC)C(=O)N[C@@H](Cc1cnc[nH]1)C(=O)N[C@@H](CC(N)=O)C(=O)N[C@@H](CC(C)C)C(=O)NCC(=O)N[C@@H](CCCCN)C(=O)N[C@@H](Cc1cnc[nH]1)C(=O)N[C@@H](CC(C)C)C(=O)N[C@@H](CC(N)=O)C(=O)N[C@@H](CO)C(=O)N[C@@H](CCSC)C(=O)N[C@@H](CCC(=O)O)C(=O)N[C@@H](CCCN=C(N)N)C(=O)N[C@H](C(=O)N[C@@H](CCC(=O)O)C(=O)N[C@@H](Cc1c[nH]c2ccccc12)C(=O)N[C@@H](CC(C)C)C(=O)N[C@@H](CCCN=C(N)N)C(=O)N[C@@H](CCCCN)C(=O)N[C@@H](CCCCN)C(=O)N[C@@H](CC(C)C)C(=O)N[C@@H](CCC(N)=O)C(=O)N[C@@H](CC(=O)O)C(=O)N[C@H](C(=O)N[C@@H](Cc1cnc[nH]1)C(=O)N[C@@H](CC(N)=O)C(=O)N[C@@H](Cc1ccccc1)C(=O)O)C(C)C)C(C)C [PTH (1-34), teriparatide]?
time at which number of pCREB+ cells in NP area peaked ([1]; after treatment): 1 hour; number of pCREB+ cells in NP area ([1]; at 30 minutes after treatment): increased; start of translocation of PTH1R to cilia [2]: 10 min; translocation of PTH1R to cilia [2]: stimulated translocation of PTH1R to cilia significantly; pCREB in cilia ([2]; co-immunostaining with acetylated tubulin): increased; PTH-enhanced transport of PTH1R to cilia [2, 4]: blocked; phosphorylation of CREB (Western blot) ([3]; at 30 min): induced phosphorylation of CREB; PTH-enhanced phosphorylation of CREB [3, 4]: blocked

Reference: patent publication US20210205638A1, “PARATHYROID HORMONE AND REGENERATION OF DEGENERATIVE DISCS DISEASE” (THE JOHNS HOPKINS UNIVERSITY, priority 2017, published 2021)
